Consider 2 compounds from patent US20230329308A1, “COMPOSITIONS COMPRISING A MINERAL SALT FOR ORAL USE” (DIFASS INTERNATIONAL S.P.A., priority 2020, published 2023).

Each structure is given as a SMILES string. “Also recorded” adds a separate entry of the source.

Series [1] is described as follows: In vitro bioavailability study, dialysis membrane method with simulated buccal, gastric and intestinal digestion. The class given is in vitro ADME. As for the experimental part: The in vitro bioavailability study was conducted by the dialysis membrane method. Said method, by its nature, is based on the physicochemical characteristics of the environments wherein the desired substance passes from one compartment to the other, and takes no account of any active mechanisms or biological interaction. The method involves three successive simulated digestion stages: buccal digestion in the presence of amylase, gastric digestion in the presence of pepsin, and finally, intestinal digestion in the presence of pancreatin.
In order to simulate buccal digestion, suitable amounts of the test samples were placed in contact with 10 mg of amylase and 1.5 mL of PBS at pH 6.9 (10^-3 M). The resulting mixtures were inserted into dialysis membranes (Spectrum Laboratories Inc., USA, MWCO: 12-14,000 Daltons), tightly closed at each end and immersed in vials containing PBS at pH 6.9. The samples were then incubated at a temperature of 37±0.5° C. for 5 minutes.
After incubation, HCl (0.85N), pepsin and a solution of NaN3 (0.04% w/w) were added to the open membranes. The membranes were closed, placed in vials containing HCl (0.85N), and incubated at 37±0.5° C. for 2 h.
After said 2 h period, a solution of NaHCO3 (0.8 M) and pancreatin was added. The closed membranes were placed in vials containing PBS at pH 7.0, and incubated at a temperature of 37±0.5° C. for a further 4 h.
To evaluate the in vitro bioavailability of the iron, the solution contained in the vials was taken up after each digestion step, and the samples were analysed with an ICP-OES THERMO FISHER ICAP 6300.
Bioavailability is defined as the percentage of iron recovered in the bioaccessible fraction after in vitro digestion, in relation to the original undigested sample, and calculated with the equation: (bioaccessible fraction/total content)×100%.

Series [2] can be described thus: Comparative iron release profile, simulated gastrointestinal conditions, ICP-OES. The class given is physicochemical. The conditions noted are these: sample equivalent to 30 mg elemental iron, HCl 0.1N then pH 6.8, 37°C. As for the experimental part:
The release profile and bioavailability of the composition according to the invention were analysed and measured by comparison with iron sulphate (the preferred form for pharmacological treatment) using an in vitro system, under conditions simulating the gastrointestinal environment.
The tests were conducted according to methods published in the international scientific literature and internally validated.
For the measurement of the comparative release profile, amounts of the two test samples were first weighed, both equivalent to 30 mg of elemental iron. The samples were initially placed in contact with a solution of HCl (0.1N) and incubated at a temperature of 37±0.5° C. A solution of Na2HPO4 was then added to the samples to buffer the pH to a value of 6.8. Said conditions were maintained throughout the remainder of the experiment. To evaluate the release profile of the iron, the two samples were centrifuged at 10,000 rpm at pre-set time intervals such as 1, 2, 4, 6 and 24 h. At the end of centrifugation the samples were taken up and analysed to evaluate the iron release profiles. The iron determination analyses were conducted with the ICP-OES THERMO FISHER ICAP 6300.

For series [3] the following is noted: in words; cited from earlier work.
For series [4] the following is noted: in words; cited from earlier work. The source holds these as a separate data set.
Series [5] can be described thus: Evaluation of organoleptic characteristics of the granulate vs iron fumarate (Example II). The class given is in vivo, human. The conditions noted are these: score 1 (intolerable) to 5 (highly tolerable); one score per participant, 4 subjects; amount equivalent to 14 mg elemental iron. As for the experimental part:
A portion of the granulate described in Example I and a portion of commercially available iron fumarate, both equivalent to 14 mg of elemental iron (100% of Nutrient Reference Value—EU Reg. 1169/2011) were weighed separately using known procedures.
The following trial protocol was used to evaluate the organoleptic characteristics of the two samples compared.
Each of the compositions listed in Table II above was tested on a group of 4 subjects. The inclusion criteria for admission to the test were solely ethical: the subjects had to be over the age of majority, healthy, and not suffering from any taste and/or iron metabolism alterations correlated with disorders and/or illnesses.
Each subject independently tasted first one and then the other sample of the example, maintaining a suitable time interval (at least 2 hours) between one tasting and the next, and rinsing their mouth, so that the evaluation of each administration was not influenced by the previous one.
On each tasting, the following parameters were evaluated: metallic odour and flavour, gastrointestinal tolerability, aftertaste, and staining of teeth, tongue and/or palate. […]

On to `O=S(=O)([O-])[O-].[Fe+2]` [Ferrous sulphate], for which the “Bioaccessible fraction, buccal digestion” value in series [1] (amylase, PBS pH 6.9, 37°C, 5 minutes) is 8.61 ± 0.73. Also, the “Bioaccessible fraction, intestinal digestion” value in series [1] (pancreatin, NaHCO3, PBS pH 7.0, 37°C, 4 h) is reported as 7.16 ± 0.41. In series [1] (pepsin, HCl 0.85N, 37°C, 2 h), the “Bioaccessible fraction, gastric digestion” value is 65.81 ± 1.39. For the same compound, the values for the Iron released in series [2] (1 h), in series [2] (2 h) and in series [2] (4 h) were 84.16 ± 1.07, 85.22 ± 0.98 and 100.03 ± 0.20, respectively.
On to `O=C([O-])/C=C/C(=O)[O-].[Fe+2]` [Sample B, Iron fumarate], for which, in series [3], the “Water solubility compared with iron sulphate” value is on record as “far less water-soluble than iron sulphate”. For the same compound, in series [4], the “Iron release compared with iron sulphate” value is “generically lower iron release than iron sulphate”. Further, the Gastrointestinal tolerability result in series [5] is given as “Gastrointestinal tolerability: 5; also recorded: Gastrointestinal tolerability: 3”.
